Experimental findings from publication PMC9820167, “Design and Synthesis of Conformationally Flexible Scaffold as Bitopic Ligands for Potent D3-Selective Antagonists” (International Journal of Molecular Sciences, 2022) are described below.

Where two headings read alike, the source gives them in different places. A value given as a limit tells only on which side of the number the result lay.

What all share (assay): PDSP binding screen
The target in assay [1] is Benzodiazepine receptor (PBR) (Rattus norvegicus, UniProt P16257). As to conditions: for Ki (nM) or % inhibition at 10 µM: Benzodiazepine receptor (PBR): PDSP, HCl salts; for inhibition at 10 µM: read-out: Ki (nM) or % inhibition at 10 µM: Benzodiazepine receptor (PBR).
Assay [2] concerns the target Dopamine active transporter (DAT) (Homo sapiens, UniProt Q01959).
Assay [3] deals with BZP Rat Brain Site. As to conditions: HCl salts.
In assay [4] the target is T1, Serotonin 5-HT2C (Homo sapiens, UniProt P28335).
T1 sequence (P28335 33-458): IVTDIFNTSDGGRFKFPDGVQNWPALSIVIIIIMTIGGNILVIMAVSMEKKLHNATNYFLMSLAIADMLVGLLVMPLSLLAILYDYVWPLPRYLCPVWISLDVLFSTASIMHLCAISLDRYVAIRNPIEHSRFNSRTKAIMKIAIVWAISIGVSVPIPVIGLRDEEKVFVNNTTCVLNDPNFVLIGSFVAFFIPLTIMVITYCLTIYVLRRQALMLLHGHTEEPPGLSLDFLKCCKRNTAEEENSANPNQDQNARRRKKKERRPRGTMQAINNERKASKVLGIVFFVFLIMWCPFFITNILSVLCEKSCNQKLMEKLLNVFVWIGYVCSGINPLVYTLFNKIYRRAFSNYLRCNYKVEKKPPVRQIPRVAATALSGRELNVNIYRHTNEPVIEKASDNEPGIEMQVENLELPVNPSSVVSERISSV

In assay [5] the target is T2, Muscarinic M2 (Homo sapiens, UniProt P08172).
T2 sequence (P08172 1-466): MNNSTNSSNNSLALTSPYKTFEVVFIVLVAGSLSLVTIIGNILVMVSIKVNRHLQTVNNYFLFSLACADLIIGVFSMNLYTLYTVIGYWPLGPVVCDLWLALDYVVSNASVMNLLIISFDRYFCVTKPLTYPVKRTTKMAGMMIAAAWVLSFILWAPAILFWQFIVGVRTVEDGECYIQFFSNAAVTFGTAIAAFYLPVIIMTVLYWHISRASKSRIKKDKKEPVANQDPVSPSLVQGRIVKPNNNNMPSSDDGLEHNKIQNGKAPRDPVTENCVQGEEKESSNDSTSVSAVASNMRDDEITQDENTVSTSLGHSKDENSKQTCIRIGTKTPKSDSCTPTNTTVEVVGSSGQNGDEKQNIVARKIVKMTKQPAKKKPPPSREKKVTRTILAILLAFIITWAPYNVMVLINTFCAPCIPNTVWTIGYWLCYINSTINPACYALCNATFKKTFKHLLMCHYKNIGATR
As to conditions: for inhibition at 10 µM: read-out: Ki (nM) or % inhibition at 10 µM: M2.

Assay [6] concerns the target Dopamine D2 (Homo sapiens, UniProt P14416).
The target in assay [7] is T3, Opioid DOR (Homo sapiens, UniProt P41143).
T3 construct: Psychoactive Drug Screening Program (PDSP)
T3 sequence (P41143 whole entry): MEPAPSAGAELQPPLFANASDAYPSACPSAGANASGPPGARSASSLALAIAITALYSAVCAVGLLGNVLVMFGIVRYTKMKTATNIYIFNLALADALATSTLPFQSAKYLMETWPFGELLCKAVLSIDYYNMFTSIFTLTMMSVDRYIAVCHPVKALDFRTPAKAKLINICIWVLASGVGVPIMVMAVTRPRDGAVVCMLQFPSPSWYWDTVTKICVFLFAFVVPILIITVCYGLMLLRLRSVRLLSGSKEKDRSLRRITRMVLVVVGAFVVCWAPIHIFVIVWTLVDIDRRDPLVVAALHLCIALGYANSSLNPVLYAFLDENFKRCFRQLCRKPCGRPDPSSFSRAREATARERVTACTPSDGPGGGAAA
As to conditions: read-out: Ki (nM) or % inhibition at 10 µM: DOR. An excerpt:
(§1) Based on the results in the dopamine receptor radioligand binding assays, nine flexible-based compounds were selected for further evaluation for off-target binding with other GPCRs through the Psychoactive Drug Screening Program (PDSP) (Supplemental Table S2). […] For example, many of the N-aryl piperazine-based analogs that our group developed in the past for either the D2 or D3 receptor had high affinity for the 5-HT1A receptor [55, 56, 57, 58]. […] This mitochondrial-based protein is typically used as a target for imaging neuroinflammation. The results of the PDSP-binding assays also confirmed the data obtained in our lab for the binding of this panel of nine compounds to D2 and D3 receptors (Supplemental Table S2).

Assay [8] deals with T4, Serotonin 5-HT1E (Homo sapiens, UniProt P28566).
T4 construct: Psychoactive Drug Screening Program (PDSP)
T4 sequence (P28566 whole entry): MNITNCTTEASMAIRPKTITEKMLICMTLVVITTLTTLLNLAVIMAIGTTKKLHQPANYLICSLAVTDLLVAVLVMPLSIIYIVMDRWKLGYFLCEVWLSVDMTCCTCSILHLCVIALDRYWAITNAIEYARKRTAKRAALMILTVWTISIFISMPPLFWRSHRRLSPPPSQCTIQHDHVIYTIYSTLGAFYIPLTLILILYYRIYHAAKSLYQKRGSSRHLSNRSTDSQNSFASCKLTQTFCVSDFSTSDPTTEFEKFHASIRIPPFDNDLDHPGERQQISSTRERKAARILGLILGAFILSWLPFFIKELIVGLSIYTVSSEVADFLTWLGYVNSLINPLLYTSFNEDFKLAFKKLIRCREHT
As to conditions: read-out: Ki (nM) or % inhibition at 10 µM: 5-HT1E.
Text: as §1

For assay [9], the target named is T5, Serotonin transporter (SERT) (Homo sapiens, UniProt P31645).
T5 construct: Psychoactive Drug Screening Program (PDSP)
T5 sequence (P31645 whole entry, species assumed): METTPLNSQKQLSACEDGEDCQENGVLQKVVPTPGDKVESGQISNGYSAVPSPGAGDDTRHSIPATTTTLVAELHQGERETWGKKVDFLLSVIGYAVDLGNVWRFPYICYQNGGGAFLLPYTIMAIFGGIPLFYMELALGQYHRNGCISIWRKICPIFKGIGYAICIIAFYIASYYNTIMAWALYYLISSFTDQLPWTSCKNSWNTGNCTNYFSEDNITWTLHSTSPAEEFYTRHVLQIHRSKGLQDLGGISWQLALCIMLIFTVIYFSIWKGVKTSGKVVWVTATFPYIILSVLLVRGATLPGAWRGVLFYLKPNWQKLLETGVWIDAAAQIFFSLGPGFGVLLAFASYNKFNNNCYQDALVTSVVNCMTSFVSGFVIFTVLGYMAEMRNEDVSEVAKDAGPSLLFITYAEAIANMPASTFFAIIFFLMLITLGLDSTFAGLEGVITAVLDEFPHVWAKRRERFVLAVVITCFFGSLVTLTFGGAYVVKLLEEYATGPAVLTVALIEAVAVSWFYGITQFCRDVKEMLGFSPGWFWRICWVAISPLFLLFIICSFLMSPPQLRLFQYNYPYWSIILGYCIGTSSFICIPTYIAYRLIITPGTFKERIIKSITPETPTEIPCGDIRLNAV
As to conditions: for Ki: PDSP, HCl salts; for inhibition at 10 µM: read-out: Ki (nM) or % inhibition at 10 µM: Serotonin transporter (SERT).
Text: as §1

In assay [10] the target is T6, Serotonin 5-HT5A (Homo sapiens, UniProt P47898).
T6 construct: Psychoactive Drug Screening Program (PDSP)
T6 sequence (P47898 whole entry): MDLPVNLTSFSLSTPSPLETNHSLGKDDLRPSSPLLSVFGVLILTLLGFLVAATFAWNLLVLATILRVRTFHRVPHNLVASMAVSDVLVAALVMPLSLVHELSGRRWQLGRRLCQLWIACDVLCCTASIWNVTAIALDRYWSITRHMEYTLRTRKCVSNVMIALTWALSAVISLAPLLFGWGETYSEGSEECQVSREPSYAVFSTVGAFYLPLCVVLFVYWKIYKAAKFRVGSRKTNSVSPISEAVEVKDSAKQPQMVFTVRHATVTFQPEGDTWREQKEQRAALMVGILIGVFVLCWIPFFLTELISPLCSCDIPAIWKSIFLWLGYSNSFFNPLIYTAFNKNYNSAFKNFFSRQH
As to conditions: read-out: Ki (nM) or % inhibition at 10 µM: 5-HT5A.
Text: as §1

The target in assay [11] is T7, Adrenergic alpha1B (Homo sapiens, UniProt P35368).
T7 sequence (P35368 1-520): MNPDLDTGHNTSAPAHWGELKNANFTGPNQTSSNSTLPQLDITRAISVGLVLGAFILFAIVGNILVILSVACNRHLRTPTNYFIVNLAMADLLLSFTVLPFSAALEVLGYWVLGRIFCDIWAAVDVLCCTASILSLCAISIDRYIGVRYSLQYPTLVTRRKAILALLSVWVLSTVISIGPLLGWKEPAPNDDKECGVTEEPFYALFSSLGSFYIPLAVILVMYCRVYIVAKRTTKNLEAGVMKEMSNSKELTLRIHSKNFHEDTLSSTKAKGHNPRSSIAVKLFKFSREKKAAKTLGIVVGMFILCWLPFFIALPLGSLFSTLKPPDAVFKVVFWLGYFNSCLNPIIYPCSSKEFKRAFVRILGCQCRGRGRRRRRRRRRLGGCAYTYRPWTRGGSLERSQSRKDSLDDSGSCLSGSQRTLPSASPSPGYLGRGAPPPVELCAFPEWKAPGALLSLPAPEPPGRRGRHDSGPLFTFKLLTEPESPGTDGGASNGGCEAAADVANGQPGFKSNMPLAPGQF
As to conditions: for inhibition at 10 µM: read-out: Ki (nM) or % inhibition at 10 µM: alpha1B.

Assay [12] deals with Dopamine D1 (Homo sapiens, UniProt P21728). As to conditions: for inhibition at 10 µM: read-out: Ki (nM) or % inhibition at 10 µM: D1.
Dopamine D1, sequence (P21728 whole entry): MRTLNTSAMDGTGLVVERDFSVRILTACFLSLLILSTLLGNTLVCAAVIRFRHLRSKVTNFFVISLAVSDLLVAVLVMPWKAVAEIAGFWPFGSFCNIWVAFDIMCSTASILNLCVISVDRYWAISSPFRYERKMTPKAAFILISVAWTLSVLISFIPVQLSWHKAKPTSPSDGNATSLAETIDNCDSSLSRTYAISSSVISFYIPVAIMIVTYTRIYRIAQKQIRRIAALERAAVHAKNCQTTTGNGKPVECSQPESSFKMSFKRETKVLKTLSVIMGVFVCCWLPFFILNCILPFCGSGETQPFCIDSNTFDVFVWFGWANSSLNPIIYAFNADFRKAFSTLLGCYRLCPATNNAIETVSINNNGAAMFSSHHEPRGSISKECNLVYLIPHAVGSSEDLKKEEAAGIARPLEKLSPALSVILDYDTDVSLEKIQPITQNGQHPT
For assay [13], the target named is Histamine H3 (Homo sapiens, UniProt Q9Y5N1). As to conditions: for inhibition at 10 µM: read-out: Ki (nM) or % inhibition at 10 µM: H3.
Histamine H3, sequence (Q9Y5N1 whole entry): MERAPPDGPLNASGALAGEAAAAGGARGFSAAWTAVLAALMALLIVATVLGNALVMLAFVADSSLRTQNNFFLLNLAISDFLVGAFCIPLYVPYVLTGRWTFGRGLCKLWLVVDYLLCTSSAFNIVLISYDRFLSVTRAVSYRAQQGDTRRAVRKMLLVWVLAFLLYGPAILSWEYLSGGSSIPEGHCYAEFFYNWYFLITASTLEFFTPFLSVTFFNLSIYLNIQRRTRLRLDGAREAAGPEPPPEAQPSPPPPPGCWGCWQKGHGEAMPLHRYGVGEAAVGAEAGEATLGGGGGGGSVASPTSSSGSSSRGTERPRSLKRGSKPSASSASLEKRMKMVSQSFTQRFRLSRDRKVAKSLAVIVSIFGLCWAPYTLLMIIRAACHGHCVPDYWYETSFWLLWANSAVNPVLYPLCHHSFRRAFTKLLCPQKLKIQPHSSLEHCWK
Assay [14] has as its target Dopamine D3 (Homo sapiens, UniProt P35462).

Dopamine D3, sequence (P35462 whole entry): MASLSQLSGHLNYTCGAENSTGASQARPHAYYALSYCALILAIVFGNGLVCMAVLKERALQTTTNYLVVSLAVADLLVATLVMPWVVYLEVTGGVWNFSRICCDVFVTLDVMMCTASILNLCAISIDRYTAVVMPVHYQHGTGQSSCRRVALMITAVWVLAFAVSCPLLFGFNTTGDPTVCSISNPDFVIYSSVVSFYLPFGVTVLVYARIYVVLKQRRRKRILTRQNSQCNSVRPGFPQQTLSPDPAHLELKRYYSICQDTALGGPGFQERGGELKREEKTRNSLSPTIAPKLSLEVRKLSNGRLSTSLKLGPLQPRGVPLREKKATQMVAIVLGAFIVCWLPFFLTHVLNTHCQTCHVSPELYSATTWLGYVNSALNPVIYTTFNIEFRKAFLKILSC
Dopamine active transporter (DAT), sequence (Q01959 whole entry, species assumed): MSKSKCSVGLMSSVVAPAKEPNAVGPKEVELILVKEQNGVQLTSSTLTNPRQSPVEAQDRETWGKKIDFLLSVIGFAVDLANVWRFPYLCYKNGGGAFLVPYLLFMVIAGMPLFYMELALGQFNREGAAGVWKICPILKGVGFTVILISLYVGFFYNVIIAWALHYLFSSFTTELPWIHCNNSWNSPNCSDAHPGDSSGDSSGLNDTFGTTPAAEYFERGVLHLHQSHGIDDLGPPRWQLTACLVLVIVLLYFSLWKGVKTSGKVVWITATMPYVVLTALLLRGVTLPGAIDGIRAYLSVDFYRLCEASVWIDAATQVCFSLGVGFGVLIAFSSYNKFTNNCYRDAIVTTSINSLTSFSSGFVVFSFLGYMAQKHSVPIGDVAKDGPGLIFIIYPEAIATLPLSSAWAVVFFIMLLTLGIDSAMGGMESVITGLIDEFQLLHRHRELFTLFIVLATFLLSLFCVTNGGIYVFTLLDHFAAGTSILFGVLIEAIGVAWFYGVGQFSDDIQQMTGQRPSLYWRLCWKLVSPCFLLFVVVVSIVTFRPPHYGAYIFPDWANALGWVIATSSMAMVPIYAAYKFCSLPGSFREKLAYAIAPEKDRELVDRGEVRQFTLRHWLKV
Dopamine D2, sequence (P14416 whole entry): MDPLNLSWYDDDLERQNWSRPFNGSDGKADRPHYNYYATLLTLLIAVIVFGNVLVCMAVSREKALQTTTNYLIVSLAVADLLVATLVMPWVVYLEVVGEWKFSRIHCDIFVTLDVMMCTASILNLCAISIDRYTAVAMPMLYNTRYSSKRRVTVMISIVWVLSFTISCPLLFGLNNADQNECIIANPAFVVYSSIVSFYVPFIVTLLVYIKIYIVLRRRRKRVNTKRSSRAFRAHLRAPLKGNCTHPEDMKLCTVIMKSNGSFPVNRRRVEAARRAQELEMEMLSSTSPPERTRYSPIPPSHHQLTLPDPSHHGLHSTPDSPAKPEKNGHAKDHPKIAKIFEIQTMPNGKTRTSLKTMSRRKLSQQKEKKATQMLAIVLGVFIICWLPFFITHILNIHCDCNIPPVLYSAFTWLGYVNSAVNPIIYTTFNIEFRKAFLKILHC

Regarding `CCN(CCCNC(=O)c1cc2ccccc2n1C)CCNC(=O)c1cc(Br)cc(OC)c1OC` [21j, N-(3-((2-(5-Bromo-2,3-dimethoxybenzamido)ethyl)(ethyl)amino)propyl)-1-methyl-1H-indole-2-carboxamide], the Ki in assay [1] came out at 0.008 µM; in assay [2] it was 0.39 µM; in assay [4], 5.06 µM; in assay [5] it was 2.97 µM; in assay [6], 0.076 µM; in assay [9], 0.415 µM. The molecule also registered a Ki in assay [14] of 0.00034 µM. For the same molecule, in assay [3], the “Ki (nM) or % inhibition at 10 µM: BZP Rat Brain Site” value is “N/A (N/A; not active means less than 50% inhibition that was obtained in primary binding assay at 10 µM of the compound)”. The inhibition at 10 µM in [7] was less than 50%; in [8] (PDSP, HCl salts), less than 50%; in [10], less than 50%; in assay [11], less than 50%; in [12], less than 50%; in assay [13], less than 50%.

As for `CCCN(CCCNC(=O)c1ccc(-c2cccs2)cc1)CCNC(=O)c1cc(Br)cc(OC)c1OC` [20a, 5-Bromo-2,3-dimethoxy-N-(2-(propyl(3-(4-(thiophen-2-yl)benzamido)propyl)amino)ethyl)benzamide], the Ki was determined as 0.009 µM in [1]; 0.511 µM in assay [2]; 2.02 µM in assay [4]; 4.93 µM in [5]; 0.185 µM in assay [6]; 5.85 µM in [9]. In addition, the Ki in assay [11] worked out at 1.4 µM; in assay [12] it was 4.29 µM; in [14], 0.00132 µM. For the same molecule, the “Ki (nM) or % inhibition at 10 µM: Benzodiazepine receptor (PBR)” value (shortened to “Ki (nM) or % inhibition at 10 µM … (PBR)”) in assay [1] is given as “relatively high affinity”. Moreover, the “Ki (nM) or % inhibition at 10 µM: BZP Rat Brain Site” value in assay [3] is “N/A (N/A; not active means less than 50% inhibition that was obtained in primary binding assay at 10 µM of the compound)”. Moreover, the inhibition at 10 µM is less than 50% in assay [7]; less than 50% in [8] (PDSP, HCl salts); less than 50% in assay [10] (PDSP, HCl salts); less than 50% in assay [13].

For `CCN(CCCNC(=O)c1ccc(-c2ccncc2)cc1)CCNC(=O)c1cc(Br)cc(OC)c1OC` [21c, 5-Bromo-N-(2-(ethyl(3-(4-(pyridin-4-yl)benzamido)propyl)amino)ethyl)-2,3-dimethoxybenzamide], the inhibition at 10 µM in assay [1] is less than 50%; in assay [7] (PDSP, HCl salts), less than 50%; in [8] (PDSP, HCl salts) it was less than 50%; in assay [9] it was less than 50%; in [10] (PDSP, HCl salts) it was less than 50%; in assay [11] it was less than 50%. The inhibition at 10 µM in assay [12] is less than 50%. Besides, the Ki in assay [2] was determined as 0.057 µM; in [4] it was 1.5 µM; in assay [5], 1.66 µM; in [6], 0.074 µM; in [13], 4.73 µM; in assay [14] it was 0.00036 µM. In addition, in [3], the “Ki (nM) or % inhibition at 10 µM: BZP Rat Brain Site” value was “N/A (N/A; not active means less than 50% inhibition that was obtained in primary binding assay at 10 µM of the compound)”.

With `CCN(CCCNC(=O)c1ccsc1)CCNC(=O)c1cc(Br)cc(OC)c1OC` [21i, N-(3-((2-(5-Bromo-2,3-dimethoxybenzamido)ethyl)(ethyl)amino)propyl)thiophen-e-3-carboxamide], in assay [1], the “Ki (nM) or % inhibition at 10 µM … (PBR)” value is given as “relatively high affinity”. The inhibition at 10 µM was less than 50% in assay [1]; less than 50% in assay [5]; less than 50% in assay [7] (PDSP, HCl salts); less than 50% in assay [8] (PDSP, HCl salts); less than 50% in assay [9]; less than 50% in [10] (PDSP, HCl salts). Also, the inhibition at 10 µM in assay [11], in [12] and in assay [13] was less than 50% in each case. For the same molecule, the Ki was found to be 0.289 µM in [2], 9.73 µM in assay [4], 0.04 µM in assay [6] and 0.00028 µM in assay [14]. Moreover, in assay [3], the “Ki (nM) or % inhibition at 10 µM: BZP Rat Brain Site” value is reported as “N/A (N/A; not active means less than 50% inhibition that was obtained in primary binding assay at 10 µM of the compound)”.

For the molecule `CCN(CCCNC(=O)c1ccc(-c2cccs2)cc1)CCNC(=O)c1cc(Br)cc(OC)c1OC` [9a, 5-Bromo-N-(2-(ethyl(3-(4-(thiophen-2-yl)benzamido)propyl)amino)ethyl)-2,3-dimethoxybenzamide], the Ki in assay [1] was determined as 1.45 µM; in assay [2], 0.087 µM; in assay [4], 0.577 µM; in assay [5] it was 1.2 µM; in assay [6], 0.232 µM; in [11], 2.19 µM. Besides, the Ki in [12] amounted to 2.4 µM; in [13], 5.58 µM; in assay [14], 0.00083 µM. In addition, the “Ki (nM) or % inhibition at 10 µM: BZP Rat Brain Site” value in assay [3] is given as “N/A (N/A; not active means less than 50% inhibition that was obtained in primary binding assay at 10 µM of the compound)”. Besides, the inhibition at 10 µM in assay [7], in [8], in assay [9] and in assay [10] was less than 50% each time.

`CCN(CCCNC(=O)c1ccc(-c2ccsc2)cc1)CCNC(=O)c1cc(Br)cc(OC)c1OC` [21g, 5-Bromo-N-(2-(ethyl(3-(4-(thiophen-3-yl)benzamido)propyl)amino)ethyl)-2,3-dimethoxybenzamide]: the Ki in assay [1] is 0.006 µM; in assay [2], 0.1 µM; in assay [4], 0.354 µM; in [6], 0.17 µM; in [11], 1.63 µM; in assay [12], 2.01 µM. Besides, the figures for the Ki in [13] and in assay [14] were 4.81 µM and 0.00061 µM, respectively. The “Ki (nM) or % inhibition at 10 µM … (PBR)” value in [1] is given as “relatively high affinity”. Besides, the “Ki (nM) or % inhibition at 10 µM: BZP Rat Brain Site” value in assay [3] is “N/A (N/A; not active means less than 50% inhibition that was obtained in primary binding assay at 10 µM of the compound)”. Also, the inhibition at 10 µM in [5] was less than 50%; in assay [7] it was less than 50%; in [8] (PDSP, HCl salts), less than 50%; in assay [9], less than 50%; in [10] (PDSP, HCl salts), less than 50%.

The term Ki denotes a dissociation constant, usually derived from enzyme kinetics or from competition with a known ligand. Usually inhibition stands for the drop in the measured response relative to a control, in per cent.
